{"source": "the NIST ThermoML archive (doi:10.1016/j.tca.2016.09.005)", "key": {"[1]": {"details": "Liquid; for speed of sound / mass density: 100 kPa; for speed of sound: Frequency=3 MHz, Sing-around technique in a fixed-path interferometer; for mass density: Vibrating tube method; for vapor or sublimation pressure: Closed cell (Static) method"}, "[2]": {"assay": "refractive index (Na D-line) (dimensionless)", "details": "293.15 K; 101.33 kPa; Liquid; Standard Abbe refractometry"}, "[3]": {"assay": "xn = mol fraction of the nth substance listed", "details": "100 kPa, Liquid, x1 = 1; for speed of sound: Frequency=3 MHz, Sing-around technique in a fixed-path interferometer; for mass density: Vibrating tube method"}}, "note": "± gives the expanded uncertainty stated by the source."}
{"smiles": "OCCCO", "note": "[propan-1,3-diol]", "values": [{"measurement": "speed of sound", "setting": "[1]; 283.15 K", "result": "1659.5 ± 2.6", "unit": "m/s"}, {"measurement": "mass density", "setting": "[1]; 283.15 K", "result": "1058.85 ± 1.3", "unit": "kg/m3"}, {"measurement": "speed of sound", "setting": "[1]; 293.15 K", "result": "1636.3 ± 2.6", "unit": "m/s"}, {"measurement": "mass density", "setting": "[1]; 293.15 K", "result": "1052.61 ± 1.2", "unit": "kg/m3"}, {"measurement": "speed of sound", "setting": "[1]; 303.15 K", "result": "1613.6 ± 2.6", "unit": "m/s"}, {"measurement": "mass density", "setting": "[1]; 303.15 K", "result": "1046.36 ± 1.2", "unit": "kg/m3"}, {"measurement": "speed of sound", "setting": "[1]; 313.15 K", "result": "1591.1 ± 2.6", "unit": "m/s"}, {"measurement": "mass density", "setting": "[1]; 313.15 K", "result": "1040.07 ± 1.2", "unit": "kg/m3"}, {"measurement": "refractive index", "setting": "[2]", "result": "1.4393 ± 0.001"}]}
{"smiles": "CCO", "note": "[ethanol] + OCCCO", "values": [{"measurement": "speed of sound", "setting": "[3]; 283.15 K", "result": "1196.8 ± 1.9", "unit": "m/s"}, {"measurement": "mass density", "setting": "[3]; 283.15 K", "result": "798.22 ± 0.93", "unit": "kg/m3"}, {"measurement": "speed of sound", "setting": "[3]; 293.15 K", "result": "1162.3 ± 1.9", "unit": "m/s"}, {"measurement": "mass density", "setting": "[3]; 293.15 K", "result": "789.7 ± 0.93", "unit": "kg/m3"}, {"measurement": "speed of sound", "setting": "[3]; 303.15 K", "result": "1128.2 ± 1.9", "unit": "m/s"}, {"measurement": "mass density", "setting": "[3]; 303.15 K", "result": "781.09 ± 0.93", "unit": "kg/m3"}, {"measurement": "speed of sound", "setting": "[3]; 313.15 K", "result": "1094.6 ± 1.9", "unit": "m/s"}, {"measurement": "mass density", "setting": "[3]; 313.15 K", "result": "772.34 ± 0.93", "unit": "kg/m3"}]}
{"smiles": "O", "note": "[water] + OCCCO", "values": [{"measurement": "mass density", "setting": "[3]; 283.15 K", "result": "999.68 ± 0.9", "unit": "kg/m3"}, {"measurement": "speed of sound", "setting": "[3]; 313.15 K", "result": "1529.2 ± 1.7", "unit": "m/s"}]}
{"smiles": "O", "note": "[water]", "values": [{"measurement": "vapor or sublimation pressure", "setting": "[1]; 273.15 K", "result": "0.593 ± 0.019", "unit": "kPa"}, {"measurement": "vapor or sublimation pressure", "setting": "[1]; 283.15 K", "result": "1.21 ± 0.038", "unit": "kPa"}, {"measurement": "vapor or sublimation pressure", "setting": "[1]; 293.15 K", "result": "2.328 ± 0.071", "unit": "kPa"}, {"measurement": "vapor or sublimation pressure", "setting": "[1]; 303.15 K", "result": "4.251 ± 0.13", "unit": "kPa"}, {"measurement": "vapor or sublimation pressure", "setting": "[1]; 313.15 K", "result": "7.411 ± 0.22", "unit": "kPa"}, {"measurement": "vapor or sublimation pressure", "setting": "[1]; 323.15 K", "result": "12.4 ± 0.37", "unit": "kPa"}, {"measurement": "vapor or sublimation pressure", "setting": "[1]; 333.15 K", "result": "20 ± 0.6", "unit": "kPa"}, {"measurement": "vapor or sublimation pressure", "setting": "[1]; 343.15 K", "result": "31.21 ± 0.94", "unit": "kPa"}, {"measurement": "vapor or sublimation pressure", "setting": "[1]; 353.15 K", "result": "47.3 ± 1.4", "unit": "kPa"}, {"measurement": "vapor or sublimation pressure", "setting": "[1]; 363.15 K", "result": "69.77 ± 2.1", "unit": "kPa"}, {"measurement": "refractive index", "setting": "[2]", "result": "1.333 ± 0.0009"}]}
{"smiles": "CO", "note": "[methanol]", "values": [{"measurement": "speed of sound", "setting": "[1]; 283.15 K", "result": "1153.3 ± 1.7", "unit": "m/s"}, {"measurement": "mass density", "setting": "[1]; 283.15 K", "result": "800.67 ± 0.91", "unit": "kg/m3"}, {"measurement": "speed of sound", "setting": "[1]; 293.15 K", "result": "1119.6 ± 1.7", "unit": "m/s"}, {"measurement": "mass density", "setting": "[1]; 293.15 K", "result": "791.28 ± 0.91", "unit": "kg/m3"}, {"measurement": "speed of sound", "setting": "[1]; 303.15 K", "result": "1086.6 ± 1.7", "unit": "m/s"}, {"measurement": "mass density", "setting": "[1]; 303.15 K", "result": "781.84 ± 0.91", "unit": "kg/m3"}, {"measurement": "speed of sound", "setting": "[1]; 313.15 K", "result": "1054.2 ± 1.7", "unit": "m/s"}, {"measurement": "mass density", "setting": "[1]; 313.15 K", "result": "772.3 ± 0.91", "unit": "kg/m3"}, {"measurement": "refractive index", "setting": "[2]", "result": "1.3285 ± 0.0009"}]}
{"smiles": "CO", "note": "[methanol] + OCCCO", "values": [{"measurement": "speed of sound", "setting": "[3]; 283.15 K", "result": "1153.3 ± 1.7", "unit": "m/s"}, {"measurement": "mass density", "setting": "[3]; 283.15 K", "result": "800.67 ± 0.91", "unit": "kg/m3"}, {"measurement": "speed of sound", "setting": "[3]; 293.15 K", "result": "1119.6 ± 1.7", "unit": "m/s"}, {"measurement": "mass density", "setting": "[3]; 293.15 K", "result": "791.28 ± 0.91", "unit": "kg/m3"}, {"measurement": "speed of sound", "setting": "[3]; 303.15 K", "result": "1086.6 ± 1.7", "unit": "m/s"}, {"measurement": "mass density", "setting": "[3]; 303.15 K", "result": "781.84 ± 0.91", "unit": "kg/m3"}, {"measurement": "speed of sound", "setting": "[3]; 313.15 K", "result": "1054.2 ± 1.7", "unit": "m/s"}, {"measurement": "mass density", "setting": "[3]; 313.15 K", "result": "772.3 ± 0.91", "unit": "kg/m3"}]}
{"smiles": "CCO", "note": "[ethanol]", "values": [{"measurement": "speed of sound", "setting": "[1]; 283.15 K", "result": "1196.8 ± 1.9", "unit": "m/s"}, {"measurement": "mass density", "setting": "[1]; 283.15 K", "result": "798.22 ± 0.93", "unit": "kg/m3"}, {"measurement": "speed of sound", "setting": "[1]; 293.15 K", "result": "1162.3 ± 1.9", "unit": "m/s"}, {"measurement": "mass density", "setting": "[1]; 293.15 K", "result": "789.7 ± 0.93", "unit": "kg/m3"}, {"measurement": "speed of sound", "setting": "[1]; 303.15 K", "result": "1128.2 ± 1.9", "unit": "m/s"}, {"measurement": "mass density", "setting": "[1]; 303.15 K", "result": "781.09 ± 0.93", "unit": "kg/m3"}, {"measurement": "speed of sound", "setting": "[1]; 313.15 K", "result": "1094.6 ± 1.9", "unit": "m/s"}, {"measurement": "mass density", "setting": "[1]; 313.15 K", "result": "772.34 ± 0.93", "unit": "kg/m3"}, {"measurement": "refractive index", "setting": "[2]", "result": "1.362 ± 0.001"}]}
